Experimental data reported in US9556117B2, “Indole carboxamide derivatives as P2X7 receptor antagonists” (ACTELION PHARMACEUTICALS LTD, priority 2012, dated 2017).

Molecular target: human recombinant P2X7 receptor (Homo sapiens (Human), UniProt Q99572)
Assay: YO-PRO1 assay, P2X7 receptor antagonistic activity

Sequence of human recombinant P2X7 receptor (Q99572 whole entry): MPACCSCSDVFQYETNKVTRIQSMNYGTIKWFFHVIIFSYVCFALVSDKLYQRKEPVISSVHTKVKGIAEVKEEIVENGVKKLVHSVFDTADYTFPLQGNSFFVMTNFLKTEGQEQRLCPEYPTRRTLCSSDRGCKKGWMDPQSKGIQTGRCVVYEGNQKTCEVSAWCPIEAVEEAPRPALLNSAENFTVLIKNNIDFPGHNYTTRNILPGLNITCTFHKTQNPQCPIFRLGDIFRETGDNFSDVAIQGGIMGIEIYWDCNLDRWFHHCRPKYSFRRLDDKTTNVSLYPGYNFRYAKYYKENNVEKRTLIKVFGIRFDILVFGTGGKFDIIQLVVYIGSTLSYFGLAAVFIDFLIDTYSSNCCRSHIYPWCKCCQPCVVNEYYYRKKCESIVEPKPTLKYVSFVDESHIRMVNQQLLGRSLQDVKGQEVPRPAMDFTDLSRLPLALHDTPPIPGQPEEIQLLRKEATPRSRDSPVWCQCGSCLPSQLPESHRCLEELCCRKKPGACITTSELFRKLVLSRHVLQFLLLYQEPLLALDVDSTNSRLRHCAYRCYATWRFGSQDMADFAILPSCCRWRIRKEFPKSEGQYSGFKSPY

Row | Structure (SMILES) | IC50 [nM]
1 | O=C(NC(CO)C1CCCCCC1)c1ccc2[nH]ccc2c1Cl (racemic) [Example 10, rac-4-Chloro-1H-indole-5-carboxylic acid (1-cycloheptyl-2-hydroxy-ethyl)-amide] | 57
2 | CC(O)c1cc(C(=O)NCC2(O)CCC(F)(F)CC2)c(Cl)c2cc[nH]c12 (racemic) [Example 67, rac-4-Chloro-7-(1-hydroxy-ethyl)-1H-indole-5-carboxylic acid (4,4-difluoro-1-hydroxy-cyclohexylmethyl)-amide] | 4.7
